Results taken from publication PMC7006816, “Human β-Defensin 2 Mediated Immune Modulation as Treatment for Experimental Colitis” (Frontiers in Immunology, 2020).
Where no end group is shown, it is not given here.

Assays:
[1] = system: C57BL/6 mice with DSS colitis; assay: DSS colitis model; assay type: in vivo, mouse; conditions: 0.1 mg/kg s.c. once a day
Method: The DSS colitis study was performed by Farma-Cros Ibérica according to directive 86/609 EEC and approved by Novozymes science ethics committee. 7–8 weeks old male C57BL/6 mice were used (Charles River) and each group consisted of 10 animals. Animal allocation to all experimental groups was done in a randomized manner. Colitis was induced by supplementing the drinking water with 2% dextran sodium sulfate (DSS, 30–50 kDA, MP Biomedicals) for 7 days. On day 1 all mice were weighed and the drinking bottle was filled with the DSS solution, this solution was replaced on day 3 and 5. On day 8 the remaining solution was discarded and replaced with autoclaved water. Mice were divided into 3 groups. One group received PBS as sham treatment intravenously. One group received on day 1, 4, and 8, 300 μg/mouse of a mouse anti-TNF-α antibody (αTNF, Ramcon) intraperitoneally. The animals in the other group were dosed s.c. with 0.1 mg/kg hBD2 once a day, starting at day 1 until day 10. Animals were euthenized on day 10. Daily clinical assessment was carried out to calculate a validated clinical disease activity index (DAI) ranging from 0 to 4 according to the following parameters: body weight loss, presence or absence of rectal bleeding, stool consistency. One mouse in the DSS control group had to be euthanized before the end of the study.
(§1) Sections of the colon were taken from each animal and preserved in neutral buffered formaline for subsequent histological analysis. Sections were stained using haematoxylin and eosin for further scoring.

[2] = system: BALB/cByJ mice with TNBS colitis; assay: TNBS colitis model; assay type: in vivo, mouse; conditions: hBD2 0.1 mg/kg s.c. once a day
Method: The TNBS colitis study was performed by Farma-Cros Ibérica according to directive 86/609 EEC and approved by Novozymes science ethics committee. Male BALB/cByJ mice were used (Janvier) and each group consisted of 15 animals. Animal allocation to all experimental groups was done in a randomized manner. Colitis was induced on day 0 by intracolonic (distal) administration of trinitrobenzene sulfonic acid (TNBS), 1 mg/mouse in 50% ethanol under mild anesthesia (ketamine/xylazine). Treatment of the animals started on day 0 after induction of colitis. All compounds were applied s.c. Mice received PBS (TNBS control), Prednisolone (10 mg/kg), or hBD2 0.1 mg/kg), respectively. In the TNBS control group as well as in the Prednisolone group, 2 animals had to be sacrificed before the end of the experiment. All other animals were sacrificed on day 10. Daily clinical assessment was carried out to calculate a validated clinical DAI ranging from 0 to 4 according to the following parameters: body weight loss, presence or absence of rectal bleeding, stool consistency.
as §1

human Mo-DC's = assay: Cytokine production by human Mo-DC's; assay type: cell-based; conditions: hBD2 100 μg/ml or 10 μg/ml, 24 h, ELISA, n = 3
Method: Peripheral blood was drawn from healthy donors and diluted one to one in PBS. The mixture was stacked in a falcon tube on Biocoll separation solution (Biochrome) with a ratio of three parts blood PBS mixture to two parts Biocoll. For a density gradient centrifugation the falcon tubes were centrifuged at 2,000 rpm for 30 min at RT. The PBMC's were removed and washed twice with PBS. 1.5 × 10^6 cells were seeded per well in a tissue culture-treated 6-well plate in RPMI-1640 medium (Merck) supplemented with 10% fetal calf serum (FCS; Sigma-Aldrich), 2 mM L-glutamine (Biochrome), 100 U/ml penicillin/streptomycin (Gibco), 50 μM 2-mercaptoethanol (Fluka), 1 mM sodium pyruvate (Biochrome), and 1x non-essential amino acids (Biochrome) and incubated for 1 h at 37°C and 5% CO2 for monocyte adherence. Then the cells were washed with media and PBS to remove the non-adherent cells and were cultivated for 6 days with media additional supplemented with 50 ng IL-4 and 100 ng GM-CSF (Miltenyi). […]
2 × 10^5 murine BM-DC's or human Mo-DC's were seeded in 96-well round bottom plates. […] 24 h later supernatants were collected and TNF-α [Biolegend (BM-DC's); R&D (Mo-DC's)] was analyzed according to the manufacturer's instructions. IL-10, IL-12, and IL-1β (LEGENDplex Biolegend) was as well-analyzed according to the manufacturer's instructions.

[3] = system: intestinal epithelial cells; conditions: cited from earlier work
Description: (§2) Herein we report that hBD2 can be used as a systemically administered anti-inflammatory biological. hBD2 is well-tolerated, both in vitro, and in vivo. […] After su ...

[4] = system: human mesenchymal stem cells, osteoblasts, keratinocytes, and HeLa cells; conditions: cited from earlier work
Description: as §2

For “human β-defensin 2 (GIGDPVTCLKSGAICHPVFCPRRYKQIGTCGLPGTKCCKKP; not fully specified; ends and bridges not checked) [hBD2, Recombinant human β-defensin 2 expressed in E. coli as his-tagged thioredoxin fusion, cleaved and purified, natural tertiary structure]”, the “Outcome of DSS colitis” value ([1]; day 1-10, 2% DSS 7 days, n = 10) was “significant improvement of colitis”, the “Therapeutic effect compared with anti-TNF-α antibody (300 μg/mouse i.p. day 1, 4, 8)” value ([1]; 2% DSS) was “superior to anti-TNF-α treatment” and the “Histology score of the colon (mucosal damage)” value ([1]; 2% DSS, end of experiment, n = 10) was “significantly reduced mucosal damage”. The DAI ([1]; 2% DSS, n = 10) was “improved the DAI”, the Weight change ([1]; 2% DSS, n = 10) was “prevented excessive weight loss” and the “Microscopic analysis of the colon (mucosa)” value ([2]; TNBS) was “nearly normal mucosa”. The Weight change ([2]; TNBS 1 mg/mouse, n = 15) was “trended toward increased weight gain from day 1–7”, the Colon weight ([2]; TNBS, n = 15) was “significantly reduced colon weight” and the “Macroscopic score of colon” value ([2]; TNBS, n = 15) was “significantly improved”. The “Microscopic score of colon” value ([2]; TNBS, n = 15) was “significantly improved”, the “TNF-α production in LPS-challenged human mo-DCs” value (human Mo-DC's) was “dose-dependently curbed TNF-α production” and the Tolerability [3] was “well-tolerated by intestinal epithelial cells”. For the same substance, the Cytotoxic effects [4] was “without observing cytotoxic effects”.
